# Patent US20260042764A1, “COMPOSITIONS AND METHODS FOR INHIBITION OF KRAS” (TheRas, Inc., priority 2022, published 2026)
# Experiments:
# SW620 cells (KRAS G12V) = experiment: Cell-based pERK HTRF assay in SW620 cell (Biological Example 4); conditions: Homo sapiens, SW-620, SW620 (KRAS G12V) cells, pERK HTRF
# How it was run: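 SW620 seeded in RPMI/10% FBS, next day dosed 4 h (top 1 μM, half-log, 9 pts, 0.25% DMSO). Lysed, pERK by d2/Eu cryptate HTRF, 4–24 h RT, 615 nm read.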
# [1] = biological target: T1, Avi-KRAS G12R (1-169) GppNHp/RAF1 RBD-3xFLAG (52-151) (Homo sapiens, UniProt P01116, G12R); experiment: Raf1-KRAS G12R-GppNHP disruption HTRF assay (Biological Example 1); type: binding
# T1 construct: Avi-KRAS G12R (1-169)
# T1 sequence (P01116 1-169 isoform P01116-2 G12R): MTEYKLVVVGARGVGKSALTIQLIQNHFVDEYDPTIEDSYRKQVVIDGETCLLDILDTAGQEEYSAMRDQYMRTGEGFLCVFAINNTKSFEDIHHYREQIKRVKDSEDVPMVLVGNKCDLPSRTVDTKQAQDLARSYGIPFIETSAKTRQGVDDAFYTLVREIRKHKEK
# How it was run: (§1)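 Protein mix, 1 h RT, 700 rpm; reagent mix, 1 h RT, 700 rpm; HTRF read. Buffer Tris pH 7.5/NaCl/MgCl2/BSA/Tween, 10% DMSO. Output % activity, DMSO = 100%.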
# [2] = biological target: T2, Avi-KRAS G12D (1-169) GppNHp/RAF1 RBD-3xFLAG (52-151) (Homo sapiens, UniProt P01116, G12D); experiment: Raf1-KRAS G12D-GppNHP disruption HTRF assay (Biological Example 1); type: binding
# T2 construct: Avi-KRAS G12D (1-169)
# T2 sequence (P01116 1-169 isoform P01116-2 G12D): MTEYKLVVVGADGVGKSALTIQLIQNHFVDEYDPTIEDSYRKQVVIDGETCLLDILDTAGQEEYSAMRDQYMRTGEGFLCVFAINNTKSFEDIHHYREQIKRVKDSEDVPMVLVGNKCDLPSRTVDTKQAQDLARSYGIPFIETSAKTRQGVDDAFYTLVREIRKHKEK
# How it was run: as §1
# GP2d cells (KRAS G12D) = experiment: Cell-based pERK HTRF assay in GP2d cell (Biological Example 2); conditions: GP2d, GP2d (KRAS G12D) cells, pERK HTRF
# How it was run: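 Cells grown in DMEM with 10% FBS were exposed to compound for 60 min at 0.25% DMSO, using a 9-point half-log series starting at 1 μM or 100 nM. Lysates were then mixed with d2 and Eu cryptate antibodies for 4–24 h at room temperature, and pERK was read by HTRF.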
# [3] = biological target: T3, Avi-KRAS WT (1-169) GppNHp/RAF1 RBD-3xFLAG (52-151) (Homo sapiens, UniProt P01116); experiment: Raf1-KRAS WT-GppNHP disruption HTRF assay (Biological Example 1); type: binding
# T3 construct: Avi-KRAS WT (1-169)
# T3 sequence (P01116 1-169 isoform P01116-2): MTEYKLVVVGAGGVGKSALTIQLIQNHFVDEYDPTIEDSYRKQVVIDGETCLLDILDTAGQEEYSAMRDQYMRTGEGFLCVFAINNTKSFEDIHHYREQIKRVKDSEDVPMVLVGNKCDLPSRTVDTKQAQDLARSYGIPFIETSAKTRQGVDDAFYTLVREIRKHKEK
# How it was run: as §1
# [4] = biological target: T4, Avi-KRAS G12V (1-169) GppNHp/RAF1 RBD-3xFLAG (52-151) (Homo sapiens, UniProt P01116, G12V); experiment: Raf1-KRAS G12V-GppNHP disruption HTRF assay (Biological Example 1); type: binding
# T4 construct: Avi-KRAS G12V (1-169)
# T4 sequence (P01116 1-169 isoform P01116-2 G12V): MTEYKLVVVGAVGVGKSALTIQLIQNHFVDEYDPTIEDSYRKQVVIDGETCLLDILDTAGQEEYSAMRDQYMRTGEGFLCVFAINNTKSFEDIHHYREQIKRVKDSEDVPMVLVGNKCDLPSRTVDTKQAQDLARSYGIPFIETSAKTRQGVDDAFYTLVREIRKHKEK
# How it was run: as §1
# [5] = KRAS G12R, GppNHp-loaded, Table 11
# [6] = KRAS G12D, GppNHp-loaded, Table 11
# [7] = KRAS WT, GppNHp-loaded, Table 11
# [8] = KRAS G12V, GppNHp-loaded, Table 11
# [9] = KRAS G12R, GppNHp-loaded, class symbols
# [10] = KRAS G12D, GppNHp-loaded, class symbols
# [11] = KRAS WT, GppNHp-loaded, class symbols
# [12] = KRAS G12V, GppNHp-loaded, class symbols
Compound,IC50 (SW620 cells (KRAS G12V)) [nM],"IC50 [1, 5] [nM]","IC50 [2, 6] [nM]",IC50 (GP2d cells (KRAS G12D)) [nM],"IC50 [3, 7] [nM]","IC50 [4, 8] [nM]",IC50 (SW620 cells (KRAS G12V); class symbols) [nM],"IC50 [1, 9] [nM]","IC50 [2, 10] [nM]",IC50 (GP2d cells (KRAS G12D); class symbols) [nM],"IC50 [3, 11] [nM]","IC50 [4, 12] [nM]",IC50 ([1]; KRAS G12R-GppNHp/RAF1 RBD HTRF) [nM],IC50 ([2]; KRAS G12D-GppNHp/RAF1 RBD HTRF) [nM],IC50 ([3]; KRAS WT-GppNHp/RAF1 RBD HTRF) [nM],IC50 ([4]; KRAS G12V-GppNHp/RAF1 RBD HTRF) [nM]
CC(=O)N1C[C@@H](N(C)c2nc(OC[C@@]34CCCN3C[C@H](F)C4)nc3c(F)c(-c4ccc(F)c5sc(N)c(C#N)c45)c(C(F)(F)F)cc23)C[C@H]1CO [Compound 247],100 to 1000,100 to 1000,100 to 1000,< 100,100 to 1000,100 to 1000,,,,,,,,,,
C[C@@]1(O)CCCN(c2nc(OC[C@@]34CCCN3C[C@H](F)C4)nc3c(F)c(-c4ccc(F)c5sc(N)c(C#N)c45)c(C(F)(F)F)cc23)C1 [Compound 224],< 100,100 to 1000,100 to 1000,< 100,100 to 1000,100 to 1000,,,,,,,,,,
N#Cc1c(N)sc2c(F)ccc(-c3c(C(F)(F)F)cc4c(N5CCC[C@H](O)C5)nc(OC[C@@]56CCCN5C[C@H](F)C6)nc4c3F)c12 [Compound 236],< 100,100 to 1000,100 to 1000,< 100,100 to 1000,100 to 1000,,,,,,,,,,
C[C@@H]1[C@H](N(C)c2nc(OC[C@@]34CCCN3C[C@H](F)C4)nc3c(F)c(-c4ccc(F)c5sc(N)c(C#N)c45)c(C(F)(F)F)cc23)CCN1C(=O)C(C)(F)F [Compound 459],< 100,,,< 100,,,,,,,,,100 to 1000,100 to 1000,100 to 1000,100 to 1000
CCC(=O)N1CC[C@@H](N(CC)c2nc(OC[C@@]34CCCN3C[C@H](F)C4)nc3c(F)c(-c4ccc(F)c5sc(N)c(C#N)c45)c(Cl)cc23)[C@H]1C [Compound 324],< 100,,,< 100,,,,,,,,,100 to 1000,100 to 1000,100 to 1000,100 to 1000
N#Cc1c(N)sc2c(F)ccc(-c3c(C(F)(F)F)cc4c(N5CCCCC5)nc(OC[C@@]56CCCN5C[C@H](F)C6)nc4c3F)c12 [Compound 203],< 100,100 to 1000,100 to 1000,< 100,100 to 1000,1000 to 10000,,,,,,,,,,
C[C@@H]1[C@H](N(C)c2nc(OC[C@@]34CCCN3C[C@H](F)C4)nc3c(F)c(-c4ccc(F)c5sc(N)c(C#N)c45)c(C(F)(F)F)cc23)CCN1C(=O)C(C)(C)C [Compound 312],< 100,,,< 100,,,,,,,,,100 to 1000,100 to 1000,100 to 1000,100 to 1000

# Now from value to molecule:
IC50 (SW620 cells (KRAS G12V)) [nM],"IC50 [1, 5] [nM]","IC50 [2, 6] [nM]",IC50 (GP2d cells (KRAS G12D)) [nM],"IC50 [3, 7] [nM]","IC50 [4, 8] [nM]",IC50 (SW620 cells (KRAS G12V); class symbols) [nM],"IC50 [1, 9] [nM]","IC50 [2, 10] [nM]",IC50 (GP2d cells (KRAS G12D); class symbols) [nM],"IC50 [3, 11] [nM]","IC50 [4, 12] [nM]",IC50 ([1]; KRAS G12R-GppNHp/RAF1 RBD HTRF) [nM],IC50 ([2]; KRAS G12D-GppNHp/RAF1 RBD HTRF) [nM],IC50 ([3]; KRAS WT-GppNHp/RAF1 RBD HTRF) [nM],IC50 ([4]; KRAS G12V-GppNHp/RAF1 RBD HTRF) [nM],Compound
,,,,,,< 100,100 to 1000,100 to 1000,< 100,100 to 1000,100 to 1000,,,,,"C[C@@H](c1cccnc1N)N(C)c1nc(OC[C@@]23CCCN2C[C@H](F)C3)nc2c(F)c(-c3ccc(F)c4sc(N)c(C#N)c34)c(C(F)(F)F)cc12 (atropisomer, axis not shown) [Compound 601]"
< 100,,,< 100,,,,,,,,,100 to 1000,100 to 1000,100 to 1000,100 to 1000,C[C@H]1C[C@H](N(c2nc(OC[C@@]34CCCN3C[C@H](F)C4)nc3c(F)c(-c4ccc(F)c5sc(N)c(C#N)c45)c(C(F)(F)F)cc23)C2CC2)CN1C(=O)C1CC1 [Compound 474]
,,,,,,< 100,< 100,< 100,< 100,100 to 1000,100 to 1000,,,,,"CCN(c1nc(OC[C@@]23CCCN2C[C@H](F)C3)nc2c(F)c(-c3ccc(F)c4sc(N)c(C#N)c34)c(C(F)(F)F)cc12)[C@H]1CCN(C(=O)c2cncnc2)C1 (atropisomer, axis not shown) [Compound 727]"
< 100,,,< 100,,,,,,,,,100 to 1000,100 to 1000,100 to 1000,100 to 1000,CCN(c1nc(OC[C@@]23CCCN2C[C@H](F)C3)nc2c(F)c(-c3ccc(F)c4sc(N)c(C#N)c34)c(C(F)(F)F)cc12)[C@@H]1CN(C(=O)C(C)C)C[C@@H]1F [Compound 475]
